Publication PMC4667193 (Scientific Reports, 2015)

What was measured:
[1] = target: muscarinic cholinergic receptors; details: [^3H]QNB, rat hippocampus; cited from earlier work
[2] = test system: rat primary hippocampal cell culture; assay: total [^3H]inositol phosphate accumulation in hippocampal cells; format: cell-based; details: 10^−8 to 10^−3 M
Method: Hippocampal cells (1 × 10^6 cells/well) were allowed to equilibrate for 10 minutes with a nutrient solution of the following composition (mM): NaCl 157.00; KCl 5.60; CaCl2 0.27; MgCl2 3.00; NaHCO3 1.80; glucose 5.50 (pH 7.0–7.2) at 37 °C under constant shaking. Cells were incubated with 5 μCi of myo[^3H]inositol (specific activity 18.0 Ci/mmol) for 80 minutes, and lithium chloride (10 mM) for additional 30 minutes. Afterwards, the cells were incubated in the absence (basal level) and in the presence of carbachol (positive control) and AEME (10^−8 to 10^−3 M) for 10 minutes. Cells were removed from the plate using a 0.1 M NaOH solution and washed three times with nutrient solution, transferred to 2 mL of methanol:chloroform (2:1 v-v) at 4 °C and homogenized with a Ultra-Turrax T25 homogenizer at 9500 rpm. Chloroform (0.62 mL) and H2O (0.93 mL) were added to the homogenate, and the solution was centrifuged for 5 minutes at 1,000× g to separate aqueous and organic phases. Total [^3H]inositol phosphate was measured as previously described by Ascoli et al.[45] with slight modification. The aqueous layer was neutralized with 0.1 M HCl and then mixed with 1 mL anion-exchange resin (Dowex AG-X8, formate form, 200–400 mesh), allowed to equilibrate for 30 minutes at room temperature, under agitation, and centrifugated at 1,000× g, for 5 minutes at 4 °C. The resin was then washed sequentially, with 10 mM myo-inositol (2 mL) and 5 mM sodium tetraborate/60 mM sodium formate (2 mL). The resin was incubated for 30 minutes at room temperature with 2 mL of 0.1 M formic acid/1 M ammonium formate). The total [^3H]inositol phosphate was eluted and placed in scintillation vials containing OptiPhase HiSafe 3. The amount of radioactivity was determined in scintillation β-counter (LS 6500 IC, Beckman). Total [^3H]inositol phosphate was expressed as percentage above basal level.

COC(=O)C1=CC[C@@H]2CC[C@H]1N2C [AEME, anhydroecgonine methyl ester]
pKi [1]: 4.15 ± 0.15
effect on total [^3H]inositol phosphate [2]: concentration-dependent increase
concentration giving maximum inositol phosphate accumulation ([2]; 10 minutes): 10^−5 M
